Test results reported in PMC7577125 (Antimicrobial Agents and Chemotherapy, 2020).
Where two headings read alike, the source gives them in different places.

How the values were obtained:
[1] = test system: NrtI^R HBV (rtL180M/M204V); assay: microbe, parasite or virus in culture; assay type: cell-based, Hepatitis B virus
HBV Cp Y118F = assay: microbe, parasite or virus in culture; assay type: cell-based, Hepatitis B virus
CYP2C8 = CYP2C8 (Homo sapiens, UniProt P10632); assay: biochemical
[2] = in vivo
[3] = target: pregnane X receptor (PXR) (Homo sapiens, UniProt O75469); assay: PXR activation / CYP3A4 induction in DPX2 cells; assay type: in vitro ADME; conditions: 24 h
Sequence of pregnane X receptor (PXR) (O75469 whole entry): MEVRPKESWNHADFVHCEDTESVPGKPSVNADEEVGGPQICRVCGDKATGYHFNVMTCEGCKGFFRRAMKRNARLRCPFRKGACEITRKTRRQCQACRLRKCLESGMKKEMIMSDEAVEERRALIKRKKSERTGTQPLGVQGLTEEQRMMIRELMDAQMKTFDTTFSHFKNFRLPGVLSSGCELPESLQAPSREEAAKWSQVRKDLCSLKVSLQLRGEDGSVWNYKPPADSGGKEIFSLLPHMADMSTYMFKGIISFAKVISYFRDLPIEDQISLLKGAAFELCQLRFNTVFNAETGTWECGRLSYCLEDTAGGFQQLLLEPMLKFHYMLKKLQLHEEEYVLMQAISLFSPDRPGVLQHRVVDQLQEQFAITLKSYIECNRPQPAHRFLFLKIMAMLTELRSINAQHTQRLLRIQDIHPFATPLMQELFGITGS
Method: The determination of CYP induction potential was conducted using CPX2 cells that harbor the human PXR gene and a luciferase reporter gene linked to two promoters identified in the human 3A4 gene.

[4] = target: HBV Cp (3CA Cp150-BODIPY) (Hepatitis B virus genotype D subtype adw, UniProt P03147, C107A/C48A/C61A/R150C); assay: HBV Cp in vitro assembly assay (fluorescence quenching)
Sequence of HBV Cp (3CA Cp150-BODIPY) (P03147 1-150 C48A/C61A/C107A/R150C): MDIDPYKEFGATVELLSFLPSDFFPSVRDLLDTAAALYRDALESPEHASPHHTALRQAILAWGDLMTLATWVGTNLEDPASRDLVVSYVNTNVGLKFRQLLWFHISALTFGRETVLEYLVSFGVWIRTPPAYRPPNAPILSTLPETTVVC

HBV Cp Wild type = assay: microbe, parasite or virus in culture; assay type: cell-based, Hepatitis B virus
HBV genotype B = assay: microbe, parasite or virus in culture; assay type: cell-based; conditions: Hepatitis B virus, read-out: Mean antiviral EC50
HBV Cp T109I = assay: microbe, parasite or virus in culture; assay type: cell-based, Hepatitis B virus
HBV Cp Y38F = assay: microbe, parasite or virus in culture; assay type: cell-based, Hepatitis B virus
[5] = test system: HBV genotypes A, B, C, and D; assay: microbe, parasite or virus in culture; assay type: cell-based; conditions: Hepatitis B virus, read-out: VR EC50s
HBV Cp D29G = assay: microbe, parasite or virus in culture; assay type: cell-based, Hepatitis B virus
HBV [6] = assay: Extracellular HBV DNA and pgRNA in HepAD38 cells (qPCR, RT-qPCR); assay type: cell-based, Hepatitis B virus
Source text: For HBV RNA Northern blot analysis, total cellular RNA or encapsidated pgRNA samples were resolved in a 1.5% agarose gel containing 2.2 M formaldehyde and transferred onto a Hybond-XL membrane (GE Healthcare). For DNA Southern blot analysis, HBV core DNA or cccDNA samples were resolved by electrophoresis in a 1.2% agarose gel and blotted onto a Hybond-XL membrane. Membranes were probed with either an [α-^32P]UTP (3,000 Ci/mmol; PerkinElmer)-labeled plus-strand-specific (for Northern blot hybridization) or minus-strand-specific (for Southern blot hybridization) HBV riboprobe and exposed to a phosphorimager screen. Extracellular HBV DNA and RNA were copurified from the culture medium of induced HepAD38 cells by using a MinElute virus vacuum kit (Qiagen). Viral DNA was quantified using the above-mentioned qPCR method directly, and HBV RNA was detected by RT-qPCR with the same core region primer/probe set after the removal of DNA contamination by DNase I (Thermo Fisher) treatment.

[7] = test system: HBV (genotype D, subtype ayw); assay: HBV replication assay in HepAD38 cells; assay type: cell-based, Hepatitis B virus; conditions: Hepatitis B virus
HBV [8] = assay: De novo infection models (HepG2-NTCP and PHH), summary; assay type: cell-based, Hepatitis B virus; conditions: Hepatitis B virus; range over two de novo infection models; read-out: EC50, suppression of cccDNA formation
HBV [9] = assay: microbe, parasite or virus in culture; conditions: Hepatitis B virus
in vitro [10] = conditions: human
HBV genotype D = assay: microbe, parasite or virus in culture; assay type: cell-based; conditions: Hepatitis B virus, read-out: Mean antiviral EC50
HBV genotype C = assay: microbe, parasite or virus in culture; assay type: cell-based; conditions: Hepatitis B virus, read-out: Mean antiviral EC50
HBV [11] = assay: HBV infection of HepG2-NTCP cells; assay type: cell-based; conditions: Hepatitis B virus
HBV Cp I105T = assay: microbe, parasite or virus in culture; assay type: cell-based, Hepatitis B virus
CYP2C9 = target: T1, CYP2C9 (Homo sapiens, UniProt P11712); assay: CYP inhibition in human liver microsomes, 2C9; assay type: in vitro ADME; conditions: 0.1–100 μM
T1 construct: in human liver microsomes; from tissue; host or cells: human liver microsomes
T1 sequence (P11712 whole entry): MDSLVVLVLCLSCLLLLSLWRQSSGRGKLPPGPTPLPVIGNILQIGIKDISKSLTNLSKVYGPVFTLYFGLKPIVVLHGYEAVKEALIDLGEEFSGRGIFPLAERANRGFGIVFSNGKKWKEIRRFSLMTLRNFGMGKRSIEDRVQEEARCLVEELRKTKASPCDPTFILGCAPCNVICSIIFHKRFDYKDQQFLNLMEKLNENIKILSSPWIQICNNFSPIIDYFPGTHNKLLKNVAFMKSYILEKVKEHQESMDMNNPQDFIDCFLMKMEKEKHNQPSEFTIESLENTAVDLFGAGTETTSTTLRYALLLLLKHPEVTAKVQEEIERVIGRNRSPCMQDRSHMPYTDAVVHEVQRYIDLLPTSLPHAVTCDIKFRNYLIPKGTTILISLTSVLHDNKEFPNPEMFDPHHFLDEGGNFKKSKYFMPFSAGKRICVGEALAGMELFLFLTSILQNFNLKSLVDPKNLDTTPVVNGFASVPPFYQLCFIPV

HBV capsid DNA = assay: Incoming capsid assay in PHH cells; assay type: cell-based; conditions: Hepatitis B virus, 3 h, read-out: Capsid DNA % of Control
in vitro [12] = conditions: human, plasma
HBV Cp Y38C = assay: microbe, parasite or virus in culture; assay type: cell-based, Hepatitis B virus
[13] = Hepatitis B virus, Huh-7, read-out: Mean EC50
[14] = HepAD38, concn ETV 0.01, ABI-H0731 2.0, GLS4 0.5, NVR 3-778 2.5, AT-130 0.8, VRD-32 0.8 μM

Sequence of CYP2C8 (P10632 whole entry): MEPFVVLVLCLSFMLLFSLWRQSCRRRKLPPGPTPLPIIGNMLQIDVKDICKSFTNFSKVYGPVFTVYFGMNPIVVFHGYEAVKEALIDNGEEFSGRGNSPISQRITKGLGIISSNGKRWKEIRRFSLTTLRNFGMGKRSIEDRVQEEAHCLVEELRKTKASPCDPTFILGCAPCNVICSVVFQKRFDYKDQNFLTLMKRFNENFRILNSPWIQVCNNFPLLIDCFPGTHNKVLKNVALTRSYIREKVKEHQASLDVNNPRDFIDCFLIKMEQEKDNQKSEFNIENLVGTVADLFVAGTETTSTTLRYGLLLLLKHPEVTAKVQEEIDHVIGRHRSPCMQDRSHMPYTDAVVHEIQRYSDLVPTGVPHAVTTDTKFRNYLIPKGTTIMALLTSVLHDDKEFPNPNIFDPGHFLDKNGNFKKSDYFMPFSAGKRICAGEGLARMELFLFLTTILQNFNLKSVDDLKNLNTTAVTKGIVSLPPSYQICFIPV

O=C(NCc1cnc(C(F)(F)F)s1)c1ccc2c(c1)NC(=O)c1ccccc1S2(=O)=O [ABI-H0731]
Fold shift ([1]; HepG2-NrtI^R versus HepAD38 (wild type)): 1.2 fold | EC50 ([1]; Hepatitis B virus, 96 h, read-out: Mean EC50): 262 ± 97 nM | EC50 (HBV Cp Y118F; [13]): 2070 nM | Fold shift (HBV Cp Y118F; Y118F vs wild type): 14 fold | IC50 (CYP2C8): 27200 nM | target organ or dose-limiting toxicities [2]: no specific target organ or dose-limiting toxicities | PXR activation activity, % of the control activity ([3]; 10 μM): 29% | PXR activation activity, % of the control activity ([3]; 40 μM): 68% | IC50 [4]: 267 nM | EC50 (HBV Cp Wild type; [13]): 146 ± 21 nM | Fold shift (HBV Cp Wild type; Wild type): 1 fold | EC50 (HBV genotype B): 85.5 ± 10.9 nM | EC50 (HBV Cp T109I; [13]): > 10000 nM | Fold shift (HBV Cp T109I; T109I vs wild type): >68 fold | EC50 (HBV Cp Y38F; [13]): 481 ± 34 nM | Fold shift (HBV Cp Y38F; Y38F vs wild type): 3.3 fold | EC50 [5]: 86 to 142 nM | Fold shift (HBV Cp D29G; D29G vs wild type): 20 fold | EC50 (HBV Cp D29G; [13]): 2960 nM | secretion of HBV RNA and DNA in the culture medium (HBV [6]; HepAD38, 10-fold over VR EC50): ≤ 3 % of the DMSO control | Extracellular DNA content (% of DMSO control) (HBV [6]; [14]): 1.4 % of DMSO control | Extracellular pgRNA content (% of DMSO control) (HBV [6]; [14]): 3.1 % of DMSO control | EC50 ([7]; HePAD38, HepAD38, concomitantly determined with HepG2-NrtI^R, read-out: Mean EC50): 221 ± 19 nM | EC50 ([7]; HePAD38, HepAD38, total intracellular viral DNA, read-out: Mean EC50, viral DNA): 173 ± 40 nM | EC50 (HBV [8]): 1840 to 7300 nM | EC50 (HBV [9]; HePAD38, HepAD38, 2% HPL): 200 ± 5 nM | EC50 (HBV [9]; HePAD38, HepAD38, 20% HPL): 522 ± 40 nM | CC50 at 4 days (in vitro [10]): > 10000 nM | EC50 (HBV genotype D): 142 ± 48 nM | EC50 (HBV genotype C): 88.2 ± 27 nM | EC50 (HBV [11]; read-out: Mean EC50, HBeAg): 4950 nM | EC50 (HBV [11]; read-out: Mean EC50, HBsAg): 7300 nM | EC50 (HBV [11]; read-out: Mean EC50, pgRNA): 2680 nM | EC50 (HBV [11]; total intracellular viral DNA, read-out: Mean EC50, viral DNA): 307 ± 41 nM | EC50 (HBV Cp I105T; [13]): 324 ± 20 nM | Fold shift (HBV Cp I105T; I105T vs wild type): 2.2 fold | IC50 (CYP2C9): 30700 nM | activity at […] (HBV capsid DNA; 0.37 μM): 71% | activity at 1.11 µM (HBV capsid DNA; 1.11 μM): 60% | activity at 3.33 µM (HBV capsid DNA; 3.33 μM): 32% | activity at 10 µM (HBV capsid DNA; 10.0 μM): 9% | fraction unbound at 6 h, 3 μM (in vitro [12]): 0.031 | fraction unbound at 6 h, 10 μM (in vitro [12]): 0.034 | fraction unbound at 6 h, 30 μM (in vitro [12]): 0.024 | EC50 (HBV Cp Y38C; [13]): 224 ± 50 nM | Fold shift (HBV Cp Y38C; Y38C vs wild type): 1.5 fold
